Article PMC11763059, “GENI as an AMPK Activator Binds α and γ Subunits and Improves the Memory Dysfunction of Alzheimer’s Disease Mouse Models via Autophagy and Neuroprotection” (Antioxidants, 2025)

How the values were obtained:
[1] = molecular target: T1, AMPK-s5 (γ subunit- D156A) (Rattus norvegicus, UniProt P54645+P80385, D156A); experiment: SPR analysis, AMPK mutant s5; type: binding
T1 construct: His (N); made in house
Protocol: (§1) Mammalian AMPK subunits (His-α1, β1, and γ1) were cloned into a pET-3d vector, and protein expression and purification were similar to the literature.
(§2) SPR analysis was performed with a Biacore T200 instrument (GE Healthcare). Firstly, the purred His-tagged AMPK containing α1β1γ1 protein was captured onto an activated carboxymethylated 5 (CM5) chip using amine coupling to levels ranging from 4000 RU to 6000 RU. Secondly, GENI was dissolved in PBS-P buffer solution (0.05% (v/v) Tween 20 and PBS), and the concentration of GENI was 64 μM. Thirdly, the solution of GENI was diluted to 32 μM, 16 μM, 8 μM, 4 μM, 2 μM, 1 μM and 0.5 μM with PBS-P buffer solution. The sample was filtered by pumping through a […] membrane. A gradient concentration of GENI was injected at a flow rate of 30 μL/min in a running buffer (0.05% (v/v) Tween 20 and PBS). The data were analyzed with Biacore evaluation software (T200 version 2.0) and fitted to the 1:1 Langmuir binding model, and the kinetic parameters were derived.
The non-covalent interaction between drugs and proteins is an important way to exert drug efficacy, and its mode of action and binding affinity usually determine the utilization and biological activity of drugs. AMPK is a heterotrimer complex consisting of an α subunit containing the kinase domain and two regulatory subunits (β- and γ-). […]

[2] = molecular target: T2, AMPK-s7 (γ subunit- D316A) (Rattus norvegicus, UniProt P54645+P80385, D316A); experiment: SPR analysis, AMPK mutant s7; type: binding
T2 construct: His (N); made in house
Protocol: as §1, §2
The non-covalent interaction between drugs and proteins is an important way to exert drug efficacy, and its mode of action and binding affinity usually determine the utilization and biological activity of drugs. AMPK is a heterotrimer complex consisting of an α subunit containing the kinase domain and two regulatory subunits (β- and γ-). Different action sites have varied or even opposite pharmacological effects. The molecular mechanism of interaction between the protein and molecule should be investigated thoroughly. After co-incubation of GENI and AMPK, LC-MS/MS measurements were performed to predict the binding sites. As shown in Extended Data Figure S2, ASP148, ASP157 and ASP166 of the AMPK α subunits and LYS148, ASP156, LYS309, and ASP316 of the AMPK γ subunit were possible to the binding sites of GENI. […] Thus, all of these seven sites affected the binding of GENI and AMPK to varying degrees, and they were located in the C lobe kinase domain of the AMPK α subunit, and the CBS2 and CBS4 domain of the AMPK γ subunit, respectively.

AMPK [3] = experiment: Drug affinity responsive target stability (DARTS), AMPK; type: binding; conditions: 0.1–100 μM GENI, protein: pronase 50:1
Protocol: Cells were lysed by RIPA lysis buffer, and the protein concentration was measured. The lysate was divided into six groups. Before incubation with protease (protein: pronase = 50:1 w/w for PI3K and AMPK detection, 5:1 for MAPK detection, 100:1 for p53 detection) for 25 min in 25 °C, 0.1–100 μM GENI was added to lysates and incubated for 2 h at room temperature. The samples were mixed with loading buffer and then separated on 8% SDS-PAGE for immunoblotting analysis.

AMPK [4] = experiment: Cellular thermal shift assay (CETSA) in PC12 cells, AMPK; type: binding; conditions: 10 μM GENI 2 h, 60 °C to 80 °C
Protocol: (§3) In a 60 mm dish containing 5 mL of DMEM, 2 × 10^6 cells were added and incubated for 24 h. In each plate, 10 μM GENI was added and incubated for 2 h. Cells were harvested and heated at a temperature ranging from 60 °C to 80 °C for PC12 cell samples. We obtained a certain amount of cerebral cortex and hippocampus samples, which were added with PBS and ground. After centrifugation, the supernatant was used as a sample, and we measured the protein concentration with a BCA kit (CoWin Biotech Co., Ltd., Taizhou, Jiangsu, China). The protein of the cerebral cortex or hippocampus was incubated with 10 μM GENI at 37 °C for 2 h and heated from 65 °C to 100 °C for the cerebral cortex sample but 43 °C to 67 °C and 65 °C to 100 °C for the hippocampus sample. Equal volumes of supernatant heated at each temperature point for the control and treatment groups were used for Western blot analysis with the antibody for specific proteins.

AMPK [5] = experiment: CETSA with cerebral cortex and hippocampus protein of mice; type: binding; conditions: cerebral cortex and hippocampus of mice brains
Protocol: as §3

PC12 cells = experiment: Neuroprotection assay (MTT) on H2O2-damaged PC12 cells; type: cell-based; conditions: GENI 1, 3, or 10 μM 24 h, then 0.8 mM H2O2 1 h
Protocol: We seeded 5 × 10^4 PC12 cells in each well of a 24-well plate and incubated the cells for 24 h at 37 °C in 5% CO2. The medium was changed to 1 mL of serum-free Dulbecco’s modified Eagle’s medium (DMEM; Thermo Scientific, Shanghai, China) containing the different test samples. To determine the optimal concentration of hydrogen peroxide (H2O2), we treated cells with 0.5% dimethyl sulfoxide (DMSO) for 24 h and then incubated the cells with different concentrations of H2O2 for 1 h. In this work, 0.8 mM H2O2 was selected as the best dose for the following experiment. To study the neuroprotective effects of GENI, we treated PC12 cells with resveratrol (RES 10 μM) or GENI (1, 3, or 10 μM) for 24 h and 0.8 mM H2O2 for 1 h. The medium was changed to 500 μL of serum-free DMEM containing 200 μg/mL 3-(4,5-dimethyltaizol-2-yl)-2,5-diphenyltetrazolium bromide (MTT) and incubated for an additional 2 h. The medium was completely removed, and 200 μL of DMSO was added to each well to dissolve the formed formazan crystals. The resulting formazan was detected at 570 nm using a microplate reader (Bio-Tec Instruments Inc., Winooski, VT, USA).

[6] = SPR, association rate, read-out: Ka

T2 sequence (P54645 13-559 limits assumed): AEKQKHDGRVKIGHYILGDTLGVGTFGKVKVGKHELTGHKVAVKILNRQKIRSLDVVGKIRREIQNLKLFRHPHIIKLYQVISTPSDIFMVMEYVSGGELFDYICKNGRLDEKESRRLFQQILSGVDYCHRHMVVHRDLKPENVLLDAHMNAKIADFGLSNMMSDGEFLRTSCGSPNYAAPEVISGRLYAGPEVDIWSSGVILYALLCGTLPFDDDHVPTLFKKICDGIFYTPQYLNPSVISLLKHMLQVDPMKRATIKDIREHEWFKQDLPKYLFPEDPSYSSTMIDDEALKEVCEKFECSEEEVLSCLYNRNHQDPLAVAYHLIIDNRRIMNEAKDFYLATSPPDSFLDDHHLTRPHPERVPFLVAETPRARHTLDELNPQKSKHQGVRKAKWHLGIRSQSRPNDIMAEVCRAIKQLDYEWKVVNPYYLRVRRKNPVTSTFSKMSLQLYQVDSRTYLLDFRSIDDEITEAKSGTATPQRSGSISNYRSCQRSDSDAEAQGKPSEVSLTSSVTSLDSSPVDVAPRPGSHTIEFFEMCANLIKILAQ
T2 sequence (P80386 whole entry partner): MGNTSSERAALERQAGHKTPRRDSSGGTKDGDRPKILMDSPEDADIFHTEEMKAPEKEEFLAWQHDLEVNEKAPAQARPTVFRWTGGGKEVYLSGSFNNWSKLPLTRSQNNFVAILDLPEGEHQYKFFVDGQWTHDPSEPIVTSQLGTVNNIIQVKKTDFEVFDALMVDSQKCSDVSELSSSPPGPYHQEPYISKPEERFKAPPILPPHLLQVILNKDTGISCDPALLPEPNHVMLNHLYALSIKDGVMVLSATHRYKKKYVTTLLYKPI
T2 sequence (P80385 whole entry D316A): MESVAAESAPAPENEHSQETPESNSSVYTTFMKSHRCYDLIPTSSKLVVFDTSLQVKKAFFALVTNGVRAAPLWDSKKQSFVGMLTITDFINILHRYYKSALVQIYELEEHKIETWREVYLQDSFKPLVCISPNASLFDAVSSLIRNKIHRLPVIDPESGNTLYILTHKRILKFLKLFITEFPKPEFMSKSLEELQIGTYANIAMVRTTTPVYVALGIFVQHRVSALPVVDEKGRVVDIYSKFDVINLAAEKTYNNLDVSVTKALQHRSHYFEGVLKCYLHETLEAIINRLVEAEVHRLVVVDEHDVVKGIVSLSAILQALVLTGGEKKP
T1 sequence (P54645 13-559 limits assumed): as the sequence (P54645 13-559 limits assumed) above
T1 sequence (P80386 whole entry partner): as the sequence (P80386 whole entry partner) above
T1 sequence (P80385 whole entry D156A): as the sequence (P80385 whole entry D316A) above, with D156A, A316D counted along it

In the case of CC(C)CCOC(=O)C1=CO[C@@H](O[C@@H]2O[C@H](CO)[C@@H](O)[C@H](O)[C@H]2O)C2C(CO)=CCC12 (stereo partly drawn) [GENI, Geniposidic 4-isoamyl ester], the kon [1, 6] is reported as 2140 M⁻¹ s⁻¹, the “dose-dependent relationship in SPR” value ([1]; point mutation of D156) is reported as “dose-dependent relationship was lost” and the Kd ([2]; SPR) is reported as 6.46 µM. For the same molecule, the kon [2, 6] was 808 M⁻¹ s⁻¹, the “response (RU) in SPR” value ([2]; point mutation of D316, versus wild-type) was “significantly reduced” and the “stability of AMPK against pronase (DARTS)” value (AMPK [3]) was “dramatically enhanced the stability”. For the same molecule, the “thermal stability of AMPK (CETSA)” value (AMPK [4]) was “sensibly increase the thermal stability”, the “stability of AMPK proteins (CETSA)” value (AMPK [5]) was “enhanced the stability” and the “survival rate of PC12 cells induced by H2O2” value (PC12 cells) was “significantly improve”.
